The source of these data is patent US20080050355A1, “PROTECTION OF BIOACTIVE FOOD INGREDIENTS BY MEANS OF ENCAPSULATION” (COMPAGNIE GERVAIS DANONE, priority 2004, published 2008).

Entries after “also recorded” stand apart in the source; their conditions may differ. Like-named read-outs stand apart in the source and are kept apart here. Peptide text beside a SMILES is read from it.

For data set [1] the following is noted: In vivo animal; Migliore-Samour 1988; cited from earlier work.
For another data set, the system named is fermented mass. The data set is described as follows: Storage of fermented mass with Lactium encapsulated in palm oil emulsion. It counts as physicochemical. The protocol:
FIG. 6: Illustration of the change in content of encapsulated bioactive ingredient over time (storage at 4° C.).
FIG. 7: Compared peptide profiles (LC-MS/MS chromatograms) of a milk mix containing 1.5 g/L Lactium® added in the form of an emulsion in palm oil according to the present invention, immediately after addition to the fermented mass (1) and after 14 days' storage at 10° C. (2).
The oil was melted at 50° C. to obtain total absence of crystals, and the Lactium® containing the bioactive food ingredient αS1(91-100] was gradually added under magnetic stirring (maintained at 50° C.).
A type of syrup was prepared from water and the premix of palm oil/bioactive food ingredient. The bioactive food ingredient was gradually added to the water (30° C.) under Ultraturax stirring (22000 rpm), the palm content of the solution being arbitrarily fixed at […].
The emulsion obtained was easily pumpable at 30° C.-35° C., but became progressively firmer as soon as the temperature fell to below 25° C.-30° C. (progressive recrystallisation of the palm oil). The use of a food emulsifier (e.g. Lactem® supplied by Danisco) to the proportion of 0.5%/fat led to obtaining a population of fatty globules that was less heterogeneous.

For data set [2], the system named is ferment YC380 (Chr. Hansen). The data set is described as follows: Fermentation of milk mix containing hydrolysate up to pH 4.7, residual peptides by HPLC-MS/MS. The class given is physicochemical. The method, then:
FIG. 3: Compared peptide profiles (LC-MS/MS chromatograms) of a milk “mix” containing 1.5 g/L DMV C12® hydrolysate before (1) and after (2) fermentation up to pH 4.7 by the lacetic ferment Hansen YC380. Almost all the peptides of the hydrolysate, including the bioactive C12 peptide (fragment αS1[23-34] disappeared after metabolisation by the ferment strains.
(§1) Protocol: the medium was prepared by hydrating a skimmed milk powder at 120 g/L, to which 1.5 g/L of Lactium® ingredient is added (corresponding to approximately 30 mg/L αs1 [91-100] bioactive peptide) then pasteurised at 95° C. for 8 minutes.
(§2) The lacetic ferment was added at a percentage of 0.02% and fermentation was conducted at the optimal temperature of the chosen ferment (between 37 and 42° C.) up to a pH of 4.70.
Analysis of the residual peptides, in particular of the bioactive peptide αS1[91-100], was conducted using a HPLC method coupled to a detector of MS/MS type as described below: • the sample was prepared by diluting the fermented medium in a mixture of water, methanol and trifluoroacetic acid (50/50/0.1%) to a ratio of approximately 1 to 6. […] For example the αS1[91-100] peptide was isolated from its mass (double charged ion of mass 634.5 Da) and quantified from the intensity of its characteristic daughter ions after fragmenting (ions with m/z 991.5 Da, 771.5 Da and 658.3 Da). […]

The conditions of data set [3]: Human hypertension (36 patients), after 8 weeks' ingestion of 95 mL/d; Hata 1996; cited from earlier work.
The conditions of data set [4]: Hypertensive rats, after ingestion; Nakamura 1995; cited from earlier work.
The conditions of data set [5]: Normal rats; Nakamura 1995; cited from earlier work.
The next data set concerns pathogenic strains. To be noted: In vitro, cited from earlier work.
Another data set has as its system platelet aggregation. To be noted: In vitro; Jollès 1986; cited from earlier work.
The conditions of data set [6]: Dog, 10 g/300 mL water by stomach tube; cancelled by naloxone; Defilippi 1986; cited from earlier work.
A short description of data set [7]: Storage of fermented then thermised product with peptide added after fermentation. It counts as physicochemical. The settings on record: thermised at 75° C. for 1 minute, stored at 10° C. until BBD (FIG. 5). The protocol:
FIG. 5: Curves illustrating changes in the residual content of αS1[91-100] bioactive peptide added after fermentation, in a product fermented and then thermised at 75° C. for 1 minute and stored at 10° C. until the Best Before Date (BBD).
This solution effectively has numerous drawbacks: • thermisation of a fermented milk mass implies the use of stabilisers added before the heat treatment (pectins, starches, carrageenans, etc.) which complicates the method and substantially increases the cost of the formula; • the industrial production line is more complex and requires specific, higher investment; • the product no longer benefits from quality labels related to products containing living ferments (yoghurt type), and thereby loses the benefits associated with the consumption of lacetic ferments; • the organoleptic impact (generally negative) is significant.

The subject of data set [8] is ferment consisting of a mixture of strains 1-2783, 1-2774, 1-2835 and 1-1968. The data set is described as follows: Fermentation of milk mix containing Lactium up to pH 4.70, residual peptides by HPLC-MS/MS. It counts as physicochemical. To be noted: 1.5 g/L Lactium® added before fermentation. The method, then: as §1, §2
Analysis of the residual peptides, in particular of the bioactive peptide αS1[91-100], was conducted using a HPLC method coupled to a detector of MS/MS type as described below: • the sample was prepared by diluting the fermented medium in a mixture of water, methanol and trifluoroacetic acid (50/50/0.1%) to a ratio of approximately 1 to 6. […] The peptides were eluted in conventional manner against an increasing gradient of solvent B (Acetonitrile+0.100% formic acid) in solvent A (Water+0.106% formic acid) for a time of 40 min to 2 hours in relation to desired resolution. • detection was made using a specific detector of MS/MS type, for example of ion trap type such as the Esquire 3000+(Bruker, Daltonique, rue de l'Industrie 67166 Wissembourg Cedex) adjusted either for global analysis of the peptide content (MS-MS mode) or for precise, specific quantification of a peptide from its characteristic fragments. […]

Data set [9] deals with Pure strains (S. thermophilus). Briefly: Fermentation of reconstituted milk with 1.5 g/L Lactium by pure strains. The settings on record: milk mix containing 1.5 g/L Lactium®, fermentation halted at pH 4.7. It counts as physicochemical. The protocol:
(§3) Analysis of the residual peptides, in particular of the bioactive peptide αS1[91-100], was conducted using a HPLC method coupled to a detector of MS/MS type as described below: • the sample was prepared by diluting the fermented medium in a mixture of water, methanol and trifluoroacetic acid (50/50/0.1%) to a ratio of approximately 1 to 6. The supernatant after centrifuging formed the sample representing the peptide content of the fermented medium. • this sample was injected into a HPLC chromatography system of Agilent 1100 type (Agilent Technologies France, 1 rue Galvani 91745 Massy Cedex France) equipped with a column adapted for peptide analysis of Waters Symetry® type (5 μm 2.1×150 mm, WAT056975, Waters, France, 5 Rue Jacques Monod, 78280 Guyancourt) at a temperature of 40° C. and flow rate 0.25 ml/min. The peptides were eluted in conventional manner against an increasing gradient of solvent B (Acetonitrile+0.100% formic acid) in solvent A (Water+0.106% formic acid) for a time of 40 min to 2 hours in relation to desired resolution. • detection was made using a specific detector of MS/MS type, for example of ion trap type such as the Esquire 3000+(Bruker, Daltonique, rue de l'Industrie 67166 Wissembourg Cedex) adjusted either for global analysis of the peptide content (MS-MS mode) or for precise, specific quantification of a peptide from its characteristic fragments. For example the αS1[91-100] peptide was isolated from its mass (double charged ion of mass 634.5 Da) and quantified from the intensity of its characteristic daughter ions after fragmenting (ions with m/z 991.5 Da, 771.5 Da and 658.3 Da). In even more precise manner, an internal standard consisting of the same synthetic peptide deuterated twice (characteristic fragment of 993.5 Da) allowed any matrix-related interferences to be overcome and taken into account.
(§4) To verify that this phenomenon is not particular to the two ferments used in paragraph 1.1) above, the main industrial ferments and different pure strains entering into the composition of these ferments, were tested on the same test basis: milk reconstituted from milk powder, to which Lactium® was added at a dose of 1.5 g/L, was fermented under standard conditions (optimal ferment temperature between 37 and 42° C., halting of fermentation at pH 4.7, two repeats). Analysis of the level of αS1[91-100] bioactive peptide was conducted on the sample before and after fermentation.
(§5) In Table 3 above, which reflects consumption of the bioactive peptide aS1[91-100] by different ferments and industrial strains during fermentation of a milk mix containing 1.5 g/L Lactium®, the pure strains were identified by their numbers and respective date of depositing with the CNCM (Institut Pasteur, Paris France).

For data set [10], the system named is Pure strains (Lactobacillus). The data set is described as above. It counts as physicochemical. The settings on record: milk mix containing 1.5 g/L Lactium®, fermentation halted at pH 4.7. The protocol:
as §3, §4, §5

“Casein 191-193: fragment 191-193 of bovine β-casein (LLY; UniProt P02666 206-208, looked up, fragment)”: the in vivo protection result in [1] was “No in vivo protection”.

For the compound “αS1[23-34]: bioactive C12 peptide, present in the C12 ingredient by DMV International and in Lactium® (FFVAPFPEVFGK; UniProt P02662 38-49, looked up, fragment)”, the “protection of peptide (LC-MS/MS peptide profile)” value with fermented mass (1.5 g/L Lactium® as emulsion in palm oil, after 14 days' storage at 10° C. (FIG. 7)) is reported as “well protected”. Further, the “peptides after fermentation (LC-MS/MS peptide profile)” value in data set [2] (milk mix containing 1.5 g/L DMV C12® hydrolysate, fermentation up to pH 4.7 (FIG. 3)) is given as “disappeared”.

In the case of Il-Pro-Pro [Il-Pro-Pro (IPP)], the blood pressure result is “reduced blood pressure” in data set [3]; “ingestion, reduced blood” in data set [4]; “Normal rats: no effect” in [5].

In the case of “Casein 63-68: fragment 63-68 of bovine β-casein (PGPIPN; UniProt P02666 78-83, looked up, fragment)”, the in vivo protection entry in data set [1] was “No in vivo protection”.

`CC[C@H](C)[C@H](NC(=O)[C@@H]1CCCN1C(=O)[C@H](Cc1cnc[nH]1)NC(=O)[C@H](CCCCN)NC(=O)[C@@H]1CCCN1C(=O)[C@@H](N)CCCNC(=N)N)C(=O)N[C@@H](CCCCN)C(=O)N[C@@H](Cc1cnc[nH]1)C(=O)N[C@@H](CCC(N)=O)C(=O)NCC(=O)N[C@@H](CC(C)C)C(=O)N1CCC[C@H]1C(=O)N[C@@H](CCC(N)=O)C(=O)N[C@@H](CCC(=O)O)C(=O)N[C@H](C(=O)N[C@@H](CC(C)C)C(=O)N[C@@H](CC(N)=O)C(=O)N[C@@H](CCC(=O)O)C(=O)N[C@@H](CC(N)=O)C(=O)N[C@@H](CC(C)C)C(=O)N[C@@H](CC(C)C)C(=O)N[C@@H](CCCNC(=N)N)C(=O)N[C@@H](Cc1ccccc1)C(=O)O)C(C)C` [isracidin] (H-RPKHPIKHQGLPQEVLNENLLRF-OH): the “growth of pathogenic strains” value in the data set with pathogenic strains (Lahov 1996) is reported as “Inhibited growth of pathogenic”.

For the compound “Peptide 106-116 of bovine κ-casein: fragment 106-116 of bovine κ-casein (MAIPPKKNQDK; UniProt P02668 127-137, looked up, fragment)”, the platelet aggregation result with platelet aggregation is “Inhibits”.

For Lactoferricin, the “growth of pathogenic strains” value in the data set with pathogenic strains (Tomita 1994-Zucht 1995) is recorded as “Inhibited growth of pathogenic strains”.

With Val-Pro-Pro [Val-Pro-Pro (VPP)], the blood pressure result in [3] is reported as “reduced blood pressure”; in [4], “ingestion, reduced blood”; in data set [5], “Normal rats: no effect”.

On to Casein, for which the small intestine motility result in [6] is recorded as “inhibition of small intestine”.

As to “αS1[91-100]: bioactive peptide with relaxing properties contained in the hydrolysate of milk proteins marketed by Ingredia as Lactium® (YLGYLEQLLR; UniProt P02662 106-115, looked up, fragment)”, the “stability of the peptide in heat-treated fermented product” value in data set [7] is on record as “possible to ensure the stability; also recorded: possible to preserve”. The “bioactive peptide consumed after fermentation” value is given as “more than 95%” in data set [8] and “more than 95%” in data set [2] (1.5 g/L Lactium® added before fermentation, up to pH 4.70). Besides, the “content of encapsulated bioactive ingredient over time” value in the data set on fermented mass (encapsulated in palm oil emulsion, added to fermented white mass, storage at 4° C. (FIG. 6)) was “stability”. Moreover, the “% αS1[91-100] peptide remaining after fermentation” value in data set [9] (strain 1-1477 (22 Sep. 1994)) is 0.3%; in data set [9] (strain 1-1630 (24 Oct. 1995)), 0.3%; in data set [10] (strain 1-1519 (30 Dec. 1994)), 0.1%; in [10] (strain 1-1632 (24 Oct. 1995)) it was 0.2%; in data set [10] (strain 1-1968 (14 Jan. 1998)), 1.6%; in [10] (strain 1-2809 (19 Feb. 2002)), 0.4%.
